Test results: patent US8017140B2, “Drug-delivery stent formulations for restenosis and vulnerable plaque” (Advanced Cardiovascular System, Inc., priority 2004, dated 2011)

Test system: thin-cap fibroatheroma (TCFA)
Assay: drug-eluting stent implants in hypercholesterolemic rabbit model of human thin-cap fibroatheroma
Format: in vivo
Details: 28 days; compared to unstented (de novo) TCFAs
Protocol: The MULTI-LINK Penta™ 13 mm was the platform for all DES and metallic stents. Both a slow release and fast release formulation of each drug were tested and the results were evaluated at 28 days. In both FIGS. 4 and 5, the test results concerning the slow release formulation were labeled with “s”, the test results concerning the fast release formulation were labeled with “f”, and the test results data concerning a formulation having both a slow and a fast release of an agent are labeled with “s+f.”

SMILES	percent lipid area	total fibrous cap thickness
CO[C@H]1C[C@@H]2CC[C@@H](C)[C@@](O)(O2)C(=O)C(=O)N2CCCC[C@H]2C(=O)O[C@H]([C@H](C)C[C@@H]2CC[C@@H](OCCO)[C@H](OC)C2)CC(=O)[C@H](C)/C=C(\C)[C@@H](O)[C@@H](OC)C(=O)[C@H](C)C[C@H](C)/C=C/C=C/C=C/1C [everolimus, 40-O-(2-hydroxy)ethyl-rapamycin]	reduce	increase
C[C@]12CC[C@@H]3c4ccc(O)cc4CC[C@H]3[C@@H]1CC[C@@H]2O [beta-estradiol, 17-beta-estradiol]	reduce	increase
